The source made the active and inactive calls. No cut-off for these calls is given here.

One compound from ChEMBL document CHEMBL4732046, “A red-light-activated sulfonamide porphycene for highly efficient photodynamic therapy against hypoxic tumor” (Eur J Med Chem, 2021) can be followed below.

Data set [1] relates to B16. The data set can be described thus: Induction of apoptosis in mouse B16 cells assessed as decrease in Bid level at 200 to 400 nM irradiated with 640 +/- 15 nm red LED for 1 hrs measured after 24 hrs by Western blot analysis. The format is functional, cell-based. To be noted: dose 200-400 nM. (A western blot detects proteins with antibodies after separation by electrophoresis.)

Data set [2] can be described thus: Toxicity in C57BL/6 mouse model assessed as change in platelet count measured after 14 days. To be noted: 336 h, time 14 day.
Data set [3] has as its system B16. The data set can be described thus: Antiproliferative activity against mouse B16 cells assessed as inhibition of cell proliferation irradiated with 640 +/- 15 nm red LED for 4 hrs in presence of 30 uM D-mannitol measured after 24 hrs under hypoxic condition by MTT assay. The format is functional, cell-based. (Formazan colour is commonly taken as a measure of viable cells.)

Data set [4] deals with A-375. The data set can be described thus: Induction of apoptosis in human A-375 cells assessed as apoptotic cells at 100 nM irradiated with 640 +/- 15 nm red LED for 1 hrs after 24 hrs by Annexin V-FITC/propidium iodide staining based flow cytometric analysis relative to control. The format is functional, cell-based. For orientation: Flow cytometry measures light scatter and fluorescence of single cells or particles in a stream.

The subject of data set [5] is A-375. The data set can be described thus: Induction of apoptosis in human A-375 cells assessed as increase in Bax level at 100 to 300 nM irradiated with 640 +/- 15 nm red LED for 1 hrs measured after 24 hrs by Western blot analysis. The format is functional, cell-based. To be noted: dose 100-300 nM.
A short description of data set [6]: Toxicity in C57BL/6 mouse assessed as effect on lactate dehydrogenase level measured upto 14 days. To be noted: in vivo, 336 h, time <=14 day.
Data set [7] is described as follows: Toxicity in C57BL/6 mouse model assessed as effect on liver treated intratumorally once every 2 days for 2 weeks followed every dosing irradiated with 640 +/- 15 nm red LED for 4 hrs measured upto 28 days by H and E staining dependent light microscopy based histopathological analysis. To be noted: in vivo, other, time <=28 day. The format is tissue-based.
Data set [8] is described as follows: Drug uptake in human A-375 cells incubated for 24 hrs in presence of 2-deoxyglucose and sodium azide by mito-tracker green based confocal microscopic method. The format is ADME, cell-based. To be noted: a-375, 24 h.
The test system of data set [9] is A-375. The data set can be described thus: Antiproliferative activity against human A-375 cells assessed as inhibition of cell proliferation irradiated with 640 +/- 15 nm red LED for 4 hrs in presence of 30 uM D-mannitol measured after 24 hrs under hypoxic condition by MTT assay. The format is functional, cell-based.
The subject of data set [10] is B16. The data set can be described thus: Induction of mitochondrial membrane potential disruption in mouse B16 cells assessed as reduction in red fluorescence upto 400 nM irradiated with 640 +/- 15 nm red LED for 1 hrs measured after 24 hrs by JC1 staining based fluorescence microscopy. The format is functional, cell-based. Conditions: dose nM <=400, time 24.0 hrs.

Data set [11] deals with A-375. The data set is described as follows: Antiproliferative activity against human A-375 cells assessed as inhibition of cell proliferation irradiated with 640 +/- 15 nm red LED for 4 hrs in presence of 30 uM D-mannitol measured after 24 hrs by MTT assay. The format is functional, cell-based.
The test system of data set [12] is B16. The data set can be described thus: Antiproliferative activity against mouse B16 cells assessed as inhibition of cell proliferation irradiated with 640 +/- 15 nm red LED for 4 hrs in presence of 30 uM L-histidine measured after 24 hrs by MTT assay. The format is functional, cell-based.
The subject of data set [13] is B16. The data set can be described thus: Induction of intracellular reactive oxygen species production in mouse B16 cells assessed as […] membrane damage at 200 nM irradiated with 640 +/- 15 nm red LED for 1 hr measured after 4 hrs by mito-tracker green based confocal microscopic method. The format is functional, cell-based.
Data set [14] in a line: Drug uptake in mouse B16 cells lysosome after 24 hrs by Lyso-Tracker Red dye based confocal microscopic method. The format is ADME, subcellular. To be noted: b16, 24 h.
Data set [15] concerns A-375. The data set can be described thus: Antitumor activity against human A-375 cells xenografted in BALB/c mouse assessed as tumor growth inhibition at 50 uM, IT once every 2 days for 2 weeks followed every dosing irradiated with 640 +/- 15 nm red LED for 4 hrs. The format is functional, cell-based.

As for `CC(C)(C)C1=Cc2nc1ccc1[nH]c(cc1S(=O)(=O)NCCOCCO)c1nc(ccc3[nH]c2cc3C(C)(C)C)C(C(C)(C)C)=C1`, the result with B16 [1], in the data set with A-375 [4], with A-375 [5], in the data set with B16 [10], with B16 [12] and in the data set with B16 [13] was Active. Besides, the result in the data set on A-375 [15] was Active. The Activity entry in data set [2], in [6] and in data set [7] was “Non-Toxic” throughout. The result in the data set on B16 [3], in the data set on A-375 [9] and in the data set on A-375 [11] was inactive. Besides, the figures for the Drug uptake result in [8] and in [14] were “Not Active” and “Active”, respectively.
